Source: patent publication US20250312352A1, “GLP-1R MODULATING COMPOUNDS” (Gilead Sciences, Inc., priority 2021, published 2025)

What was measured:
[1] = Pharmacokinetic (PK) studies, monkey oral PK; type: in vivo, Cynomolgus monkeys; settings: for Tmax / AUC(0-t) / Cmax / bioavailability: Cynomolgus monkey, plasma; for Tmax / AUC(0-t) / Cmax: single oral dose 2 mg/kg (CE-1: 1 mg/kg); for AUC(0-t): read-out: AUC0-24 (Arbitrary units); for Cmax: read-out: Cmax (Arbitrary unit); for bioavailability: oral dose 2 mg/kg (CE-1: 1 mg/kg)
Procedure: Examples 54 and 253 were tested along with comparative examples CE-1 and CE-2.
Compounds CE-2, Example 54 or Example 253 were combined with a mixture of 10% NMP (v:v) and 90% PEG300 (v:v), and the mixture was stirred until a homogeneous solution was obtained (1 mg/mL final concentration of test article).
Compound CE-1 was combined with a mixture of 15% 2-hydroxypropyl-o-cyclodextrin (w:v) and 85% Mili-Q water (v:v), and the mixture was stirred until a homogeneous solution was obtained (0.5 mg/mL final concentration of test article).
Young adult non-naive Cynomolgus monkeys with weight about 2.5-5 kg (n=1-3/test article/route) were fasted overnight and then dosed with either CE-1 (at 1 mg test article per kg animal weight), CE-2 (at 2 mg test article per kg animal weight), Example 54 (at 2 mg test article per kg animal weight), or Example 253 (at 2 mg test article per kg animal weight). Food was supplied approximately 4 hours post dose and animals were provided with free access to water all the time. Animals were restrained at designated time points for blood sampling. Approximately 500 μL of blood samples was taken via cephalic or saphenous vein into EDTA-K2 tubes. For oral administration (PO): blood samples were generally collected pre-dose, and at 15 min, 30 min, 1 hr, 2 hr, 4 hr, 8 hr, 12 hr, and 24 hr time points after dosing. Blood was maintained on wet ice, in chilled cryoracks, or at approximately 5° C. prior to centrifugation to obtain plasma. Centrifugation was conducted within 1 hour of collection. Plasma (approximately 200 μL) was placed into a micronic tubes containing 4 μL of formic acid (the final concentration of formic acid in plasma was approximately 2%) and samples were vortex mixed. Samples were maintained on dry ice prior to storage at approximately −70° C.
LC-MS/MS assays were utilized to quantify the concentration of the test articles in plasma as follows.
50 μL plasma sample was mixed with 350 μL of ACN combined with an internal standard. The mixture was then vortexed for about 1-5 min, and centrifuged at about 4,000-5,800 rpm for about […]. An aliquot of 1 μL supernatant was used for LC-MS/MS analysis.
MS conditions: A Sciex API 6500 equipped with electrospray ionization in the positive ion selected reaction monitoring mode was used for detection.
HPLC conditions • Mobile Phase A: H2O-0.1% Formic Acid • Mobile Phase B: ACN-0.1% Formic Acid
• Column: Phenomenex Kinetex XBC18 (2.1×50 mm, 2.6 μm) with a flow rate of 1.20 mL/min • Column temperature: 60° C. • Retention time: approximately between 0.85 to 1.05 • min
Pharmacokinetics parameters, including area under the curve (AUC0-24), maximum plasma concentration (Cmax), time to reach maximum plasma concentration (Tma), oral bioavailability (F %), etc., were calculated using Dotmatics software in non-compartmental model.

GLP-1R = biological target: T1, GLP-1R (Homo sapiens, UniProt P43220); assay: GLP-1R activation cAMP assay (Assay 1 or Assay 2); type: cell-based; settings: cAMP increase in CHO cells stably expressing GLP-1R; compounds run on one of the two cAMP assays
T1 construct: host or cells: CHO cells
Method in brief: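 CHO cells stably expressing human GLP-1R were incubated 1 h in HBSS/20 mM HEPES/0.1% BSA, then exposed to 10-point agonist dilutions for 30 min at 37 °C. cAMP increase was measured with an HTRF Gs dynamic kit; EC50 from sigmoidal fit of response versus log concentration.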

T1 sequence (P43220 24-463): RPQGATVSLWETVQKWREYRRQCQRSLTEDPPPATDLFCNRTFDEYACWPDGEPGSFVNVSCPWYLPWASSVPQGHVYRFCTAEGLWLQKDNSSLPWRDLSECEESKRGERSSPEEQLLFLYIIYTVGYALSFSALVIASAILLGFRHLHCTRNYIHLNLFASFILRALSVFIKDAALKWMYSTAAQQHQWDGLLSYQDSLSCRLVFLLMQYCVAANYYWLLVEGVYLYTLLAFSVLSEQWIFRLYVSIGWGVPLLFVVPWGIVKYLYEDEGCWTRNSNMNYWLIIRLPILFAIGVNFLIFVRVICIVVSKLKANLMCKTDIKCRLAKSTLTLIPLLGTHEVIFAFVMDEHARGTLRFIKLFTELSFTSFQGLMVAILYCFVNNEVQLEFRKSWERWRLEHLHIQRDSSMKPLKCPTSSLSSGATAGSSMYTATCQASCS

SMILES | EC50 (GLP-1R) [nM] | other results
O=C(O)c1ccc2nc(Cc3cc(F)c(-c4cccc(OCc5ncc(C(F)(F)F)s5)n4)cc3F)n(C[C@@H]3CCO3)c2c1 [Example 54, (S)-2-(2,5-difluoro-4-(6-((5-(trifluoromethyl)thiazol-2-yl)methoxy)pyridin-2-yl)benzyl)-1-(oxetan-2-ylmethyl)-1H-benzo[d]imidazole-6-carboxylic acid] | 0.09 | Tmax [1]: 4.7 ± 1.2 h; AUC(0-t) [1]: 14.2 ± 7.69 µM·h; Cmax [1]: 1270 ± 628 nM; bioavailability [1]: 89 ± 33%
N#Cc1ccc(COc2cccc(C3CCN(Cc4nc5ccc(C(=O)O)cc5n4C[C@@H]4CCO4)CC3)n2)c(F)c1 [CE-1, (S)-2-((4-(6-((4-cyano-2-fluorobenzyl)oxy)pyridin-2-yl)piperidin-1-yl)methyl)-1-(oxetan-2-ylmethyl)-1H-benzo[d]imidazole-6-carboxylic acid, reference compound] |  | plasma exposures after the 12 h period ([1]; single oral dose of 1 mg/kg, monkey, FIG. 1): below the detection limit
O=C(O)c1cc(F)c2nc(Cc3cc(F)c(-c4cccc(OCc5ncc(C(F)(F)F)s5)n4)cc3F)n(C[C@@H]3CCO3)c2c1 [Example 253, (S)-2-(2,5-difluoro-4-(6-((5-(trifluoromethyl)thiazol-2-yl)methoxy)pyridin-2-yl)benzyl)-4-fluoro-1-(oxetan-2-ylmethyl)-1H-benzo[d]imidazole-6-carboxylic acid] |  | Tmax [1]: 5.3 ± 2.3 h; AUC(0-t) [1]: 6.39 ± 2.36 µM·h; Cmax [1]: 582 ± 296 nM; bioavailability [1]: 55.7 ± 20.6%
N#Cc1ccc(COc2cccc(-c3cc(F)c(Cc4nc5ccc(C(=O)O)cc5n4C[C@@H]4CCO4)cc3F)n2)c(F)c1 [Compound CE-2] |  | bioavailability [1]: 27.4 ± 12.9%
N#Cc1ccc(COc2cccc(C3CCN(Cc4nc5ccc(C(=O)O)cc5n4C[C@@H]4CCO4)CC3)n2)c(F)c1 [Compound CE-1] |  | bioavailability [1]: 2.5 ± 0.2%
Cn1nccc1-c1cnc(COc2cccc(-c3cc(F)c(Cc4nc5ccc(C(=O)O)cc5n4C[C@@H]4CCO4)cc3F)n2)s1 [Example 94, (S)-2-(2,5-difluoro-4-(6-((5-(1-methyl-1H-pyrazol-5-yl)thiazol-2-yl)methoxy)pyridin-2-yl)benzyl)-1-(oxetan-2-ylmethyl)-1H-benzo[d]imidazole-6-carboxylic acid] | 2.87 | 
Cn1cc(Cl)c(COc2cccc(-c3cc(F)c(Cc4nc5ccc(C(=O)O)cc5n4C[C@@H]4CCO4)cc3F)n2)n1 [Example 78, (S)-2-(4-(6-((4-chloro-1-methyl-1H-pyrazol-3-yl)methoxy)pyridin-2-yl)-2,5-difluorobenzyl)-1-(oxetan-2-ylmethyl)-1H-benzo[d]imidazole-6-carboxylic acid] | 9.4 | 
CCOc1nnc(COc2nc(-c3cc(Cl)c(Cc4nc5c(F)cc(C(=O)O)cc5n4[C@@H]4COCC4(C)C)cc3C)ccc2F)s1 [Example 421, (S)-2-(2-chloro-4-(6-((5-ethoxy-1,3,4-thiadiazol-2-yl)methoxy)-5-fluoropyridin-2-yl)-5-methylbenzyl)-1-(4,4-dimethyltetrahydrofuran-3-yl)-4-fluoro-1H-benzo[d]imidazole-6-carboxylic acid] | 0.087 | 
Cc1cc(Cc2nc3ccc(C(=O)O)cc3n2[C@@H]2COCC2(C)C)c(Cl)cc1-c1ccc(F)c(OCc2ncc(C(C)(F)F)s2)n1 [Example 427, (S)-2-(2-chloro-4-(6-((5-(1,1-difluoroethyl)thiazol-2-yl)methoxy)-5-fluoropyridin-2-yl)-5-methylbenzyl)-1-(4,4-dimethyltetrahydrofuran-3-yl)-1H-benzo[d]imidazole-6-carboxylic acid] | 1.42 | 
O=C(O)c1ccc2nc(Cc3cc(F)c(-c4cccc(OCc5cc(C(F)(F)F)ns5)n4)cc3F)n(C[C@@H]3CCO3)c2c1 [Example 81, (S)-2-(2,5-difluoro-4-(6-((3-(trifluoromethyl)isothiazol-5-yl)methoxy)pyridin-2-yl)benzyl)-1-(oxetan-2-ylmethyl)-1H-benzo[d]imidazole-6-carboxylic acid] | 0.81 | 
CCOc1nnc(COc2nc(-c3cc(F)c(Cc4nc5ccc(C(=O)O)cc5n4[C@@H]4COCC4(C)C)c(F)c3F)ccc2F)s1 [Example 265, (S)-1-(4,4-dimethyltetrahydrofuran-3-yl)-2-(4-(6-((5-ethoxy-1,3,4-thiadiazol-2-yl)methoxy)-5-fluoropyridin-2-yl)-2,3,6-trifluorobenzyl)-1H-benzo[d]imidazole-6-carboxylic acid] | 0.152 | 
COc1nnc(COc2cccc(-c3cc(F)c(Cc4nc5c(F)cc(C(=O)O)cc5n4CC4(CF)CC4)cc3F)n2)s1 [Example 411, 2-(2,5-difluoro-4-(6-((5-methoxy-1,3,4-thiadiazol-2-yl)methoxy)pyridin-2-yl)benzyl)-4-fluoro-1-((1-(fluoromethyl)cyclopropyl)methyl)-1H-benzo[d]imidazole-6-carboxylic acid] | 0.315 | 

Second part, led by results:

EC50 (GLP-1R) [nM] | SMILES | other results
0.094 | O=C(O)c1cc(F)c2nc(Cc3cc(F)c(-c4cccc(OCc5ccc(Cl)s5)n4)cc3F)n(C[C@@H]3CCO3)c2c1 [Example 314, (S)-2-(4-(6-((5-chlorothiophen-2-yl)methoxy)pyridin-2-yl)-2,5-difluorobenzyl)-4-fluoro-1-(oxetan-2-ylmethyl)-1H-benzo[d]imidazole-6-carboxylic acid] | 
23.6 | Cn1cncc1COc1cccc(-c2cc(F)c(Cc3nc4ccc(C(=O)O)cc4n3C[C@@H]3CCO3)cc2F)n1 [Example 178, (S)-2-(2,5-difluoro-4-(6-((1-methyl-1H-imidazol-5-yl)methoxy)pyridin-2-yl)benzyl)-1-(oxetan-2-ylmethyl)-1H-benzo[d]imidazole-6-carboxylic acid] | 
0.4 | O=C(O)c1ccc2nc(Cc3cc(F)c(-c4cccc(OCc5ccc(C#Cc6ccncc6)cc5F)n4)cc3F)n(C[C@@H]3CCO3)c2c1 [Example 140, (S)-2-(2,5-difluoro-4-(6-((2-fluoro-4-(pyridin-4-ylethynyl)benzyl)oxy)pyridin-2-yl)benzyl)-1-(oxetan-2-ylmethyl)-1H-benzo[d]imidazole-6-carboxylic acid] | 
17.9 | COCCn1c(Cc2cc(F)c(-c3cccc(OCc4ccc(-c5cnn(C6CCNCC6)c5)nc4)n3)cc2F)nc2ccc(C(=O)O)cc21 [Example 229, 2-(2,5-difluoro-4-(6-((6-(1-(piperidin-4-yl)-1H-pyrazol-4-yl)pyridin-3-yl)methoxy)pyridin-2-yl)benzyl)-1-(2-methoxyethyl)-1H-benzo[d]imidazole-6-carboxylic acid] | 
